These results are taken from patent US11685734B2, “ATM kinase inhibitors and compositions and methods of use thereof” (CHDI Foundation, Inc., priority 2019, dated 2023).

The target of assay [1] is Recombinant, full length human FLAG-tagged ATM (Homo sapiens (Human), UniProt Q13315). Description: ATM ELISA for p53 S15 phosphorylation. The assay is classed as biochemical. The settings on record: for IC50: 0.75 nM ATM, 25 nM p53, 10 μM ATP, 30 min at 20° C., read-out: ATM BIO IC50. The procedure:
ATM: Recombinant, full length human FLAG-tagged ATM activity (Eurofins 14-933) was measured in an ELISA for p53 S15 phosphorylation, in a 384 well V-bottom polypropylene plate (Greiner Bio One 781280). Reactions contained 0.75 nM ATM, 25 nM full length myc tagged p53 (Eurofins 23-034), 10 μM UltraPure ATP (Promega V915B) and serial dilutions of inhibitors (0.1% DMSO final) in 25 mM HEPES, pH 7.5. 5 mM MgCl2, 2.5 mM MnCl2, 0.006% Brij-35, 0.5% glycerol, 0.1 mg/ml BSA, 0.5 mM DTT and were allowed to proceed for 30 min at 20° C. 70 mM EDTA final terminated the kinase reactions. An aliquot of the terminated reaction (25 μl) was transferred to a 384-well, high binding microplate (Greiner Bio One 781061), precoated with anti-myc capture antibody overnight (Millipore 05-724) diluted in 1:1000 in PBS, then blocked with Odyssey blocking buffer (LI-COR Biosciences 92740000) for 60 min at 20° C. The terminated reaction was allowed to capture for 2 h at 20° C. Phosphorylation was measured using an antibody specific to p53 S15 phosphorylation (1:5000 Abcam ab38497), anti-rabbit HRP (1:1000 Cell Signalling Technology, 7074) and TMB (ab171522). Antibodies were diluted in Odyssey blocking buffer and incubated for 60 min at 20° C. Three washes with PBS containing 0.05% (v/v) Tween 20 (PBS-T) were performed between each incubation. The TMB reaction was stopped with an equal volume of 0.2 M sulfuric acid and absorbance read at 450 nm on the Perkin Elmer Envision within 30 min of terminating the reaction. […] IC50 values represent the mean from at least two independent experiments.

In another assay the target is cellular ATM activity (Homo sapiens (Human), UniProt Q13315). Description: Inhibition of cellular ATM activity: etoposide-stimulated KAP1 phosphorylation in U20S cells. Type of assay: cell-based. The conditions noted are these: 100 μM etoposide, 60 min, read-out: ATM CELL IC50. The procedure:
Inhibition of cellular ATM activity was determined by changes in etoposide-stimulated KAP1 phosphorylation, based on the work of Guo et al. 2014.
Cryopreserved U20S cells were plated overnight at 6 k cells/well in black walled, clear bottomed 384 well plates (Greiner Bio One 781090). After overnight incubation (37 C, 5% CO2), cells were incubated with titrations of test compounds (0.3% DMSO final) in the presence of 100 μM etoposide (Sigma E1383) to stimulate ATM via induction of double stranded DNA breaks. After 60 min, cells were fixed using 100% cold methanol and incubated at −20° C. for 10 min. Fixed cells were washed with PBS containing 0.05% (v/v) Tween 20 (PBS-T) prior to a 60 minute blocking step in Odyssey blocking buffer (LI-COR Biosciences 92740000). Primary antibodies (1:1000 phosphorylated KAP1: Cell Signalling Technology 4127, 1:5000 total KAP1: Cell Signaling Technology 5868) were diluted in Odyssey blocking buffer and incubated overnight at 4° C., before addition of IRDye(R) conjugated secondary antibodies (LI-COR Biociences 926-32211, LI-COR Biosciences 926-68070) diluted 1:2000 in Odyssey blocking buffer for 60 min at room temperature and detection by LI-COR Odyssey (ImageStudio version 2.1.10, focus offset 4 mm, resolution 169 μm, lowest quality, intensities of 1 and 3 for 700 and 800 channels respectively). Immunoreactivity was quantified and the ratio of phosphorylated KAP1 calculated by dividing by the total KAP1 immunoreactivity. The percentage of inhibition was calculated for each concentration of compound using 100% (100 μM etoposide+30 μM KU-60019) and 0% effect controls (100 μM etoposide+DMSO). IC50 values represent the mean from at least two independent experiments.

Recombinant, full length human FLAG-tagged ATM, sequence (Q13315 whole entry): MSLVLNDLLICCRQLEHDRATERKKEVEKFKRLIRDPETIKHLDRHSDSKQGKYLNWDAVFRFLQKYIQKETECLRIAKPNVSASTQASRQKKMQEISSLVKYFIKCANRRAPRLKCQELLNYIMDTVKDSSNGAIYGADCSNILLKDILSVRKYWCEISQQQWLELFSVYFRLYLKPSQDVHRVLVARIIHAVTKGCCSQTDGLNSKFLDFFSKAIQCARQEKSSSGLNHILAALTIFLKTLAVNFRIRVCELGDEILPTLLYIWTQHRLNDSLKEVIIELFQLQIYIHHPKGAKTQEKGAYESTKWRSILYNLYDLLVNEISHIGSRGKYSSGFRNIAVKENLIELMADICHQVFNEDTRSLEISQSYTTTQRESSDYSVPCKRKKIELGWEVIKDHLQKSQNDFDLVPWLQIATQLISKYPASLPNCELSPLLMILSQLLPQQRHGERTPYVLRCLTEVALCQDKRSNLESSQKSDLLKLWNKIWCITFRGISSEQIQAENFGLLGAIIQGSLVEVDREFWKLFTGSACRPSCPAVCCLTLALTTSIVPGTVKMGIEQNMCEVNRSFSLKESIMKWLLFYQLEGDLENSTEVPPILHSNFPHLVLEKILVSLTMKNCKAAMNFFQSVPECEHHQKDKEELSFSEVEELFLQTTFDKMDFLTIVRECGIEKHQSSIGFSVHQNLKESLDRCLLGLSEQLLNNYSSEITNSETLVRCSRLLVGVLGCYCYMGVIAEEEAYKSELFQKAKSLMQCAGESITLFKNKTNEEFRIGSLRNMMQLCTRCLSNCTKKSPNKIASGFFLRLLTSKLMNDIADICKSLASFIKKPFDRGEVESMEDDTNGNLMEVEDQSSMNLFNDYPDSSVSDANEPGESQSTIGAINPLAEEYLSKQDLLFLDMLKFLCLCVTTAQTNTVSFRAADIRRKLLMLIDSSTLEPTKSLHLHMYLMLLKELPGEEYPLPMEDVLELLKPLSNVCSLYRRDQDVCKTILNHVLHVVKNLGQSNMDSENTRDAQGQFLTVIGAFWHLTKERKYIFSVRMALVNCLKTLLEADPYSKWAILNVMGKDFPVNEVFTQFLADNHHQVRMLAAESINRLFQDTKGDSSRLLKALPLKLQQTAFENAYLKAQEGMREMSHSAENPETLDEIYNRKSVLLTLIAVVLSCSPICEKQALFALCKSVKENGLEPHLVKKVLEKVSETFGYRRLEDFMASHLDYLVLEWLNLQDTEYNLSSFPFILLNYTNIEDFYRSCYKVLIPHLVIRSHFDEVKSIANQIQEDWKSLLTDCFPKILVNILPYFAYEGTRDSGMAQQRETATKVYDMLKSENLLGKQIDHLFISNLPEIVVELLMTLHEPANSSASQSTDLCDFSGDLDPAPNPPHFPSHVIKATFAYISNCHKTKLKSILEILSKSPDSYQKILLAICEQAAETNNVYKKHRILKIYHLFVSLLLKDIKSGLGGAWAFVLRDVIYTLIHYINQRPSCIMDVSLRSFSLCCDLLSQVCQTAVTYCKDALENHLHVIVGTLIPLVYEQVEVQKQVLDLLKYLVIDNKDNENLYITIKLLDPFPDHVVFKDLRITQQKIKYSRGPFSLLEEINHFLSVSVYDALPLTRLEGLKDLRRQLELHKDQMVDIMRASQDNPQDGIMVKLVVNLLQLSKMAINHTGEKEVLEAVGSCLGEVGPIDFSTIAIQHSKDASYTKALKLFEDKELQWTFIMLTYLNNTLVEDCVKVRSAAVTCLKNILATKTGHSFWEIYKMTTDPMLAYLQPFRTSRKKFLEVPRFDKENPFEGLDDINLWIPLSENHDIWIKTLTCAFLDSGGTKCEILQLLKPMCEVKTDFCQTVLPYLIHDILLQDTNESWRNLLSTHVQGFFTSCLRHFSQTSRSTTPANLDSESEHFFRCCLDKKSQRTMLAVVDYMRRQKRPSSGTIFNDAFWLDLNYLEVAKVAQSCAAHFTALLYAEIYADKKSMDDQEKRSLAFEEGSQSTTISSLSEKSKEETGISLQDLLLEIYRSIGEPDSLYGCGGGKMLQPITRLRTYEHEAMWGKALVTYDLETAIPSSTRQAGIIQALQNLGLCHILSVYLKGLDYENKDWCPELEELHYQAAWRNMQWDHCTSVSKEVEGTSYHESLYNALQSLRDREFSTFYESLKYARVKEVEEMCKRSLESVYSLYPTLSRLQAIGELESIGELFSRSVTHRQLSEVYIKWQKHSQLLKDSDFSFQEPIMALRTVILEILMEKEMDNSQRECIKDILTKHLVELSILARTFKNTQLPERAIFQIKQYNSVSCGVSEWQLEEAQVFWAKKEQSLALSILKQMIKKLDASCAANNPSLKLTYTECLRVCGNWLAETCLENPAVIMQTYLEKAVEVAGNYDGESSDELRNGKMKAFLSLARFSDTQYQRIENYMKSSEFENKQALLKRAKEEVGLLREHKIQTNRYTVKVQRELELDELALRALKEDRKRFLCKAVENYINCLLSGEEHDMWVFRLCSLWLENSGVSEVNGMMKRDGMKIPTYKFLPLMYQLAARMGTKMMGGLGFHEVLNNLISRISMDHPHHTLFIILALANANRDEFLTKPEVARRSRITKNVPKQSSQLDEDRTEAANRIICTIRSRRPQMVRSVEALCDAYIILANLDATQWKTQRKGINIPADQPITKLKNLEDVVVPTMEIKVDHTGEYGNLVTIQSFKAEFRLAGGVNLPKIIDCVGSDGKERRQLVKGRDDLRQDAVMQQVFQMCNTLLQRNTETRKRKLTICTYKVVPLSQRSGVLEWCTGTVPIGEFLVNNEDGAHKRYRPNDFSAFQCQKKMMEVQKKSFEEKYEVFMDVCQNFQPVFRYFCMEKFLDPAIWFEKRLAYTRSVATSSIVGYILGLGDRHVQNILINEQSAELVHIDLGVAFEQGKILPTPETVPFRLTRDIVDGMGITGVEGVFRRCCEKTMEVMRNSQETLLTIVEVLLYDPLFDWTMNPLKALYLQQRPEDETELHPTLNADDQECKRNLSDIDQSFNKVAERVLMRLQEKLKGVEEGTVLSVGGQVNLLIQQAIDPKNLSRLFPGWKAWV
cellular ATM activity, sequence (Q13315 whole entry): as above

For `CC(c1ccccc1)C1CCCN1c1nc(N2CCOCC2)cc(=O)[nH]1` (racemic) [Example 252, 6-morpholino-2-((R*)-2-((S*)-1-phenylethyl)pyrrolidin-1-yl)pyrimidin-4(3H)-one], the concentration for half-maximal inhibition (IC50) in assay [1] turned out to be 0.0637 µM; on cellular ATM activity, 2.29 µM.

Regarding `CC1C[C@H](Cc2ccccc2)N(c2cc(N3CCOCC3)cc(=O)[nH]2)C1` (single isomer, unassigned) [Example 100, 6-((2R,4R*)-2-benzyl-4-methylpyrrolidin-1-yl)-4-morpholinopyridin-2(1H)-one], the IC50 came out at 0.0331 µM in assay [1] and 1.63 µM on cellular ATM activity.

With `CC1C[C@H](Cc2ccccc2)N(c2cc(N3CCOCC3)cc(=O)[nH]2)C1` (single isomer, unassigned) [Example 101, 6-((2R,4R*)-2-benzyl-4-methylpyrrolidin-1-yl)-4-morpholinopyridin-2(1H)-one], the half-inhibitory concentration (IC50) in assay [1] worked out at 0.0171 µM; on cellular ATM activity it was 1.41 µM.

With `CC1CCC[C@H](Cc2ccccc2)N(c2nc(N3CCOCC3)cc(=O)[nH]2)C1` (single isomer, unassigned) [Example 246], the IC50 in assay [1] turned out to be 0.0225 µM; at cellular ATM activity it was 1.07 µM.

For the compound `CC1CCC[C@H](Cc2ccccc2)N(c2nc(N3CCOCC3)cc(=O)[nH]2)C1` (single isomer, unassigned) [Example 247], the IC50 in assay [1] was determined as 0.0015 µM; at cellular ATM activity, 0.194 µM.

As to `CC1C[C@H](Cc2ccccc2)N(c2nc(N3CCO[C@H](C)C3)cc(=O)[nH]2)C1` (single isomer, unassigned) [Example 320], the figures for the IC50 (in assay [1]; at cellular ATM activity) were 0.0909 µM and 1.68 µM, respectively.

In the case of `CC1COCCN1c1cc(=O)[nH]c(N2CCCC2Cc2ccccc2)n1` (single isomer, unassigned) [Example 339, 2-(2-benzylpyrrolidin-1-yl)-6-(3-methylmorpholino)pyrimidin-4(3H)-one], the IC50 in assay [1] turned out to be 0.0345 µM; on cellular ATM activity it was 1.56 µM.

As to `CC1OCCN(c2cc(=O)[nH]c(N3CCCC3Cc3ccccc3)n2)C1C` (single isomer, unassigned) [Example 352, 2-(2-benzylpyrrolidin-1-yl)-6-(2,3-dimethylmorpholino)pyrimidin-4(3H)-one], the values for the IC50 (in assay [1]; at cellular ATM activity) were 0.024 µM and 1.53 µM, respectively.

With `O=c1cc(N2CCOCC2)cc(N2CCC[C@@H]2Cc2ccccc2)[nH]1` [Example 1, (R)-6-(2-benzylpyrrolidin-1-yl)-4-morpholinopyridin-2(1H)-one], the 50% inhibitory concentration (IC50) was 0.0362 µM in assay [1] and 3.38 µM at cellular ATM activity.

For `O=c1cc(N2CCOCC2)cc(N2CCC[C@H]2Cc2ccccc2)[nH]1` [Example 2, (S)-6-(2-benzylpyrrolidin-1-yl)-4-morpholinopyridin-2(1H)-one], in assay [1] (qualitative statement used for stereochemical assignment), the “biological activity in the biochemical assay” value was “lack of biological activity”.

In the case of `COc1ccccc1C[C@H]1CCCN1c1cc(N2CCOCC2)cc(=O)[nH]1` [Example 7, (R)-6-(2-(2-methoxybenzyl)pyrrolidin-1-yl)-4-morpholinopyridin-2(1H)-one], the IC50 in assay [1] stood at 0.0446 µM; at cellular ATM activity, 1.02 µM.

On to `COc1ccc(C[C@H]2CCCN2c2cc(N3CCOCC3)cc(=O)[nH]2)cc1` [Example 13, (R)-6-(2-(4-methoxybenzyl)pyrrolidin-1-yl)-4-morpholino pyridin-2(1H)-one], for which the figures for the IC50 (in assay [1]; at cellular ATM activity) were 0.0705 µM and 4.49 µM, respectively.

With `O=c1cc(N2CCOCC2)cc(N2CCC[C@@H]2Cc2ccc(F)cc2)[nH]1` [Example 16, (R)-6-(2-(4-fluorobenzyl)pyrrolidin-1-yl)-4-morpholino pyridin-2(1H)-one], the values for the 50% inhibitory concentration (IC50) (in assay [1]; on cellular ATM activity) were 0.0894 µM and 4.16 µM, respectively.

As to `Cc1ccc(C[C@H]2CCCN2c2cc(N3CCOCC3)cc(=O)[nH]2)cc1` [Example 20, (R)-6-(2-(4-methylbenzyl)pyrrolidin-1-yl)-4-morpholinopyridin-2(1H)-one], the 50% inhibitory concentration (IC50) in assay [1] is 0.0541 µM; at cellular ATM activity it was 2.93 µM.

On to `COc1cccc(C[C@H]2CCCN2c2cc(N3CCOCC3)cc(=O)[nH]2)c1` [Example 22, (R)-6-(2-(3-methoxybenzyl)pyrrolidin-1-yl)-4-morpholinopyridin-2(1H)-one], for which the IC50 in assay [1] was determined as 0.0553 µM; on cellular ATM activity it was 2.68 µM.

Consider `COc1cccc(C[C@H]2CCCCCN2c2cc(N3CCOCC3)cc(=O)[nH]2)c1` [Example 23, (R)-6-(2-(3-methoxybenzyl)azepan-1-yl)-4-morpholinopyridin-2(1H)-one], for which the values for the 50% inhibitory concentration (IC50) (in assay [1]; on cellular ATM activity) were 0.0065 µM and 0.527 µM, respectively.

Take `Cc1ccccc1C[C@H]1CCCCCN1c1cc(N2CCOCC2)cc(=O)[nH]1` [Example 25, (R)-6-(2-(2-methylbenzyl)azepan-1-yl)-4-morpholinopyridin-2(1H)-one]: the half-maximal inhibitory concentration (IC50) in assay [1] is 0.0137 µM; at cellular ATM activity, 0.53 µM.

Consider `COc1ccccc1C[C@H]1CCCCCN1c1cc(N2CCOCC2)cc(=O)[nH]1` [Example 27, (R)-6-(2-(2-methoxybenzyl)azepan-1-yl)-4-morpholinopyridin-2(1H)-one], for which the half-inhibitory concentration (IC50) amounted to 0.0166 µM in assay [1] and 0.501 µM at cellular ATM activity.

As for `COc1ccc(C[C@H]2CCCCCN2c2cc(N3CCOCC3)cc(=O)[nH]2)cc1` [Example 29, 6-[(2R)-2-[(4-methoxyphenyl)methyl]azepan-1-yl]-4-morpholino-1H-pyridin-2-one], the half-maximal inhibitory concentration (IC50) turned out to be 0.0325 µM in assay [1] and 0.371 µM on cellular ATM activity.

Turning to `O=c1cc(N2CCOCC2)cc(N2CCCCC[C@@H]2Cc2cccs2)[nH]1` [Example 31, 4-morpholino-6-[(2R)-2-(2-thienylmethyl)azepan-1-yl]-1H-pyridin-2-one], the half-inhibitory concentration (IC50) came out at 0.0123 µM in assay [1] and 0.26 µM on cellular ATM activity.

On to `O=c1cc(N2CCOCC2)cc(N2CCCCC[C@@H]2Cc2ccccn2)[nH]1` [Example 33, (R)-4-morpholino-6-(2-(pyridin-2-ylmethyl)azepan-1-yl)pyridin-2(1H)-one], for which the IC50 came out at 0.0924 µM in assay [1] and 1.78 µM on cellular ATM activity.

On to `O=c1cc(N2CCOCC2)cc(N2C[C@H]3C[C@H]3[C@@H]2Cc2ccccc2)[nH]1` [Example 43, 6-((1R,2S,5S)-2-benzyl-3-azabicyclo[3.1.0]hexan-3-yl)-4-morpholinopyridin-2(1H)-one], for which the IC50 in assay [1] came out at 0.0096 µM; on cellular ATM activity it was 0.293 µM.

Turning to `COc1ccccc1C[C@H]1[C@H](C)CCN1c1cc(N2CCOCC2)cc(=O)[nH]1` [Example 47, 6-((2S,3R)-2-(2-methoxybenzyl)-3-methylpyrrolidin-1-yl)-4-morpholinopyridin-2(1H)-one], the values for the IC50 (in assay [1]; at cellular ATM activity) were 0.0083 µM and 0.347 µM, respectively.

For the compound `COc1cc(F)ccc1C[C@H]1CCCCCN1c1cc(N2CCOCC2)cc(=O)[nH]1` [Example 50, (R)-6-(2-(4-fluoro-2-methoxybenzyl)azepan-1-yl)-4-morpholinopyridin-2(1H)-one], the IC50 in assay [1] was found to be 0.023 µM; on cellular ATM activity, 0.977 µM.

For `O=c1cc(N2CCOCC2)cc(N2CCCCC[C@@H]2Cc2ccc(F)cc2)[nH]1` [Example 52, (R)-6-(2-(4-fluorobenzyl)azepan-1-yl)-4-morpholino pyridin-2(1H)-one], the IC50 in assay [1] was determined as 0.0353 µM; on cellular ATM activity, 0.839 µM.

Regarding `O=c1cc(N2CCOCC2)cc(N2CCCCC[C@@H]2Cc2cccc3c2OCC3)[nH]1` [Example 57, (R)-6-(2-((2,3-dihydrobenzofuran-7-yl)methyl)azepan-1-yl)-4-morpholinopyridin-2(1H)-one], the half-maximal inhibitory concentration (IC50) in assay [1] amounted to 0.018 µM; at cellular ATM activity, 0.292 µM.

Broadly, the IC50 is the concentration needed to halve the response being measured.
